The source of these data is article PMC12703428, “Development of Granzyme A Turn‐ON Fluorescent Activity‐Based Probes” (Chembiochem, 2025).

The target of one series is T1, neutrophil elastase (NE) (Homo sapiens, UniProt P08246).
T1 sequence (P08246 30-267): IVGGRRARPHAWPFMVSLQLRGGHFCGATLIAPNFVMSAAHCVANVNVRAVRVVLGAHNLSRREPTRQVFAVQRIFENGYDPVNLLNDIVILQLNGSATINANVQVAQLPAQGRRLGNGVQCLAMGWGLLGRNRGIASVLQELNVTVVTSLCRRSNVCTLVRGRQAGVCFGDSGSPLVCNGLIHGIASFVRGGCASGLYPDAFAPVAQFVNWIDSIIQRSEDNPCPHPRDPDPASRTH
Briefly: Cross-reactivity labeling, neutrophil elastase. The class given is biochemical. The conditions noted are these: protease 100 nM, probe 100 nM, 2 h, 37 °C, in-gel fluorescence. The protocol:
Protease (100 nM) HNE PR3 GzmK GzmA
Protease (100 nM) GzmA GzmK
Supplementary Figure 2. Cross-reactivity of probes. (A) Labeling of GzmA, GzmK, PR3, and HNE
(100 nM, 2 h, 37 °C) by 100 nM of 5 and 6. (B) Labeling of GzmA and GzmK (100 nM, 2 h, 37 °C) by
100 nM of 3 – 6. (C) Concentration-dependent labeling of GzmA and GzmK (100 nM, 2 h, 37 °C) by 5 and
6. Protein samples were analyzed by SDS-PAGE and in-gel fluorescence scanning for Cy5 signal.
Protein loading was confirmed by SYPRO Ruby staining. […]

Series [1] in a line: Stability of probes in buffer and cell media (hydrolysis by Cy5 signal). The class given is physicochemical. The following applies: cell culture media, 11 h incubation, 37 °C, read-out production of Cy5 fluorescence signal, mean ± SD n = 3. How it is done: Figure 4 Characterization of qABPs in native proteomes. A) Labeling of GzmA by 5 and 6 in lysates of various cell lines (1 h, 37 °C). B) Stability of 5 and 6 in buffer and cell media (11 h, 37 °C). The hydrolysis of probes was measured by monitoring the production of Cy5 fluorescence signal over time. […] C) Labeling of GzmA by probes 3 –6 in NK‐92 cells (2 h, 37 °C). D) Flow cytometry analysis of protein labeling in NK‐92 cells by 3 –5. […] E) Flow cytometry analysis of concentration‐dependent GzmA labeling in NK‐92 cells and S/N of 5 (5 μM, 2 h, 37 °C). […] F) Flow cytometry analysis of protein labeling by 5 in MDA‐MB‐231 cells co‐cultured with NK‐92 cells (see Supporting Information for conditions). […] TEXT PRINTED IN THE PICTURE: (E) qABP 5: S/N = 4

Another series concerns NK‐92 cells. Briefly: Flow cytometry analysis of protein labeling in NK-92 and MDA-MB-231 cells. The following applies: 2 h, 37 °C. Format: cell-based, human. The protocol:
Figure 4 Characterization of qABPs in native proteomes. A) Labeling of GzmA by 5 and 6 in lysates of various cell lines (1 h, 37 °C). B) Stability of 5 and 6 in buffer and cell media (11 h, 37 °C). The hydrolysis of probes was measured by monitoring the production of Cy5 fluorescence signal over time. […] C) Labeling of GzmA by probes 3 -6 in NK-92 cells (2 h, 37 °C). D) Flow cytometry analysis of protein labeling in NK-92 cells by 3 -5. […] E) Flow cytometry analysis of concentration-dependent GzmA labeling in NK-92 cells and S/N of 5 (5 μM, 2 h, 37 °C). […] F) Flow cytometry analysis of protein labeling by 5 in MDA-MB-231 cells co-cultured with NK-92 cells (see Supporting Information for conditions).
For orientation: A flow cytometer gives signals particle by particle.

Values joined by “and” are separate entries in the source; they are usually repeats but may differ in a detail not shown here. Equal values may be shown once. Square brackets hold non-standard residues; d marks the D form. Ends that are not written are not given here. Oic = O=C(O)[C@@H]1C[C@@H]2CCCC[C@@H]2N1; Tic = O=C(O)[C@@H]1Cc2ccccc2CN1

For [Tic]G[Oic]R [compound 6], the “Labeling of NE (cross-reactivity)” value at neutrophil elastase (NE) is listed as “Neither probe 5 nor 6 showed detectable labeling”. In addition, the Hydrolysis of probe result in series [1] is “≈ 20%”.
Take IGNR [compound 5]: on neutrophil elastase (NE), the “Labeling of NE (cross-reactivity)” value is “Neither probe 5 nor 6 showed detectable labeling”. Moreover, in the series on NK‐92 cells (1x10^6 NK-92 cells, fixed/permeabilized, mean ± SD n = 3), the “Cell permeability by flow cytometry (Cy5 signal in NK-92 cells)” value is reported as “clear Cy5 signal”. Also, in the series on NK‐92 cells (NK-92 cells, n = 3), the “Concentration dependence of protein labeling in NK-92 cells (flow cytometry)” value is given as “concentration‐dependent protein labeling”. In addition, the “S/N ratio (mean fluorescence intensity, intact NK-92 versus MDA-MB-231 cells)” value with NK‐92 cells (probe 5 μM, flow cytometry, n = 3) was “≈ 4 and 4”.
